Experiments:
[1] = tested on: promyelocytic leukemia cell stain HL-60; experiment: Cell differentiation-inducing activity test in HL-60 cell, each compound alone; format: cell-based; conditions: HL-60, NBT reduction
Excerpt: (§1) By using the above compounds, cell differentiation-inducing activity of each compound alone, and effect on cell differentiation-inducing action of a co-existing retinoid were examined. As a comparative and co-existing retinoid, Am80: 4-[(5,6,7,8-tetrahydro-5,5,8,8-tetramethyl-2-naphthalenyl)carbamoyl]benzoic acid (1×10^−10 M) was used. According to the method described in Japanese Patent Unexamined Publication (KOKAI) No.(Sho)61-76440/1986, promyelocytic leukemia cell stain HL-60 was used, and differentiation into granulocytic cells was determined by observing morphological change and measuring ability to reduce nitroblue tetrazolium (NBT). The ratios of differentiated cells shown in the following table were calculated from the ability of reducing NBT.

[2] = tested on: promyelocytic leukemia cell stain HL-60; experiment: Effect on cell differentiation-inducing action of co-existing retinoid Am80 in HL-60 cell; format: cell-based; conditions: HL-60, NBT reduction
Excerpt: as §1

For `CCCN(c1ccc2c(c1)C(C)(C)CCC2(C)C)c1ncc(C(=O)O)cn1` [Compound 3], the “Ratio of differentiated cells by each compound alone (%)” value ([1]; compound concentration 10^−6 M) was 16%, the “Ratio of differentiated cells by each compound alone (%)” value ([1]; compound concentration 10^−7 M) was 14% and the “Ratio of differentiated cells by each compound alone (%)” value ([1]; compound concentration 10^−8 M) was 9%. For the same molecule, the “Ratio of differentiated cells by each compound co-existing with 1 × 10^−10 M Am80 (%)” value ([2]; compound concentration 10^−7 M + 1 × 10^−10 M Am80) was 89%, the “Ratio of differentiated cells by each compound co-existing with 1 × 10^−10 M Am80 (%)” value ([2]; compound concentration 10^−8 M + 1 × 10^−10 M Am80) was 87% and the “Ratio of differentiated cells by each compound co-existing with 1 × 10^−10 M Am80 (%)” value ([2]; compound concentration 10^−9 M + 1 × 10^−10 M Am80) was 90%. For the same molecule, the “Ratio of differentiated cells by each compound co-existing with 1 × 10^−10 M Am80 (%)” value ([2]; compound concentration 10^−10 M + 1 × 10^−10 M Am80) was 60% and the “Ratio of differentiated cells by each compound co-existing with 1 × 10^−10 M Am80 (%)” value ([2]; compound concentration 10^−11 M + 1 × 10^−10 M Am80) was 27%.
Molecule `Cc1cc2c(cc1Nc1ncc(C(=O)O)cn1)C(C)(C)CCC2(C)C` [Compound 5, 2-[N-(5,6,7,8-Tetrahydro-3,5,5,8,8-pentamethylnaphthalen-2-yl)amino]pyrimidine-5-carboxylic Acid] has a melting point of 267 °C.
Work on `CCCN(c1ncc(C(=O)O)cn1)c1cc2c(cc1C)C(C)(C)CCC2(C)C` [Compound 7, 2-[N-n-Propyl-N-(5,6,7,8-tetrahydro-3,5,5,8,8-pentamethyl-naphthalen-2-yl)amino]pyrimidine-5-carboxylic Acid] yielded a melting point of 193 °C.
With `Cc1cc2c(cc1N(CC1CC1)c1ncc(C(=O)O)cn1)C(C)(C)CCC2(C)C` [Compound 8, 2-[N-Cyclopropylmethyl-N-(5,6,7,8-tetrahydro-3,5,5,8,8-pentamethylnaphthalen-2-yl)amino]pyrimidine-5-carboxylic Acid] the melting point was 123 °C.
Work on `CN(c1cc(C(C)(C)C)cc(C(C)(C)C)c1)c1ncc(C(=O)O)cn1` [Compound 9, 2-[N-(3,5-Di-tert-butylphenyl)-N-methylamino] pyrimidine-5-carboxylic Acid] yielded a melting point of 261 to 263 °C.
Molecule `CCCN(c1ncc(C(=O)O)cn1)c1cc(C(C)(C)C)ccc1C(C)(C)C` [Compound 11, 2-[N-(3,6-Di-tert-butylphenyl)-N-n-propylamino]pyrimidine-5-carboxylic Acid] has a melting point of 219 °C.
Work on `CC(C)(C)c1cc(N(CC2CC2)c2ncc(C(=O)O)cn2)cc(C(C)(C)C)c1` [Compound 12, 2-[N-Cyclopropylmethyl-N-(3,5-di-tert-butylphenyl)-amino]pyrimidine5-carboxylic Acid] yielded a melting point of 194 °C.
